In the NIST ThermoML archive (doi:10.1021/acs.jced.8b00723) one finds speed of sound and mass density data, which are given here for three compounds.

The nature of this data set: an = ratio of the nth substance listed. The following applies: 308.15 K, 100 kPa, Liquid; for speed of sound: Single path-length method; for mass density: Vibrating tube method.

The structures appear in SMILES notation. ± gives the expanded uncertainty stated by the source.

In general, speed of sound refers to how fast a sound wave travels through the sample. Usually mass density stands for mass per unit of volume. `CCO` [ethanol] + O: the speed of sound reads like this: (a1 = 0.05) 1542.9 ± 0.6 m/s; (a1 = 0.1) 1559.2 ± 0.6 m/s; (a1 = 0.15) 1590.4 ± 0.6 m/s. The mass density was determined as 990.6 ± 10 kg/m3 (a1 = 0.05), 982.8 ± 10 kg/m3 (a1 = 0.1) and 971.7 ± 10 kg/m3 (a1 = 0.15).
For the compound `CO` [methanol] + O, the speed of sound (a1 = 0.05) is given as 1533.2 ± 0.5 m/s, the speed of sound (a1 = 0.1) is given as 1543.5 ± 0.5 m/s and the speed of sound (a1 = 0.15) is given as 1566.7 ± 0.5 m/s. In addition, the mass density is, setting by setting: (a1 = 0.05) 988.6 ± 10 kg/m3; (a1 = 0.1) 980.6 ± 10 kg/m3; (a1 = 0.15) 971 ± 10 kg/m3.
Consider `CC(C)O` [propan-2-ol] + O, for which the speed of sound runs as follows: (a1 = 0.05) 1551.7 ± 0.6 m/s; (a1 = 0.075) 1566.2 ± 0.6 m/s; (a1 = 0.1) 1569.7 ± 0.6 m/s. For the same compound, the mass density runs as follows: (a1 = 0.05) 993.1 ± 10 kg/m3; (a1 = 0.075) 991.8 ± 10 kg/m3; (a1 = 0.1) 987.6 ± 10 kg/m3.
